Source: US7897765B2, “Therapeutic compounds and uses thereof” (Elixir Pharmaceuticals, Inc., priority 2003, dated 2011)

The compounds below were run against GHS-R (Homo sapiens, UniProt Q92847) (assay: cell based assay of GHS-R antagonist/agonist activity). Conditions: GHS-R antagonist Ki and/or agonist EC50 class.
Parameters: key: A refers to a compound having antagonist activity with Ki<100 nM in a cell based assay; B refers to a compound having agonist activity with EC50<100 nM in a cell based assay; C refers to a compound having antagonist activity of Ki>100 nM and <1500 nM in a cell based assay; D refers to a compound having antagonist activity with Ki, <100 nM and agonist activity with EC50<100 nM in a cell-based assay; E refers to other exemplary compounds
In short: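 COS-7 cells transfected with GHS-R, labelled with [3H]-myo-inositol, preincubated in 10 mM LiCl buffer pH 7.4, then given compound 45 min at 37 °C; [3H]-IP isolated by anion exchange. Alternatively, CREB-luciferase reporter in transfected HEK293 with 5 h compound exposure. IC50/EC50 by nonlinear regression.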

GHS-R, sequence (Q92847 whole entry, species assumed): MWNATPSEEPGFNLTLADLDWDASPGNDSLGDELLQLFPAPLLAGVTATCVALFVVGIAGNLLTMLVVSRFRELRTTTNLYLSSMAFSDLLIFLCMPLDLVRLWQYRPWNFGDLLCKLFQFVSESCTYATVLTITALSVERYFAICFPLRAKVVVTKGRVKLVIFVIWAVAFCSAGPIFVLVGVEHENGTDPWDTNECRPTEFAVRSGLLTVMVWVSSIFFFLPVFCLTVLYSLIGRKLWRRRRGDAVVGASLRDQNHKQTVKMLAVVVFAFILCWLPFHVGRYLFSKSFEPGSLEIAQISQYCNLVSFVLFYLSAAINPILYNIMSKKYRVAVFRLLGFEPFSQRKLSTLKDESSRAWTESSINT

Compound	Activity
CS(=O)(=O)N1CC2(CCN(C(=O)[C@@H](COCc3ccccc3)NS(=O)(=O)CCCN3CCCC3)CC2)c2ccccc21 [Compound 159]	A (A refers to a compound having antagonist activity with Ki<100 nM in a cell based assay)
CN([C@H](COCc1ccccc1)C(=O)N1CCC2(CC1)CN(S(C)(=O)=O)c1ccccc12)S(=O)(=O)CCCCl [Compound 160]	E
COCCCS(=O)(=O)N[C@H](COCc1ccccc1)C(=O)N1CCC2(CC1)CN(S(C)(=O)=O)c1ccccc12 [Compound 161]	E
CCN(CC)CCCS(=O)(=O)N(C)[C@H](COCc1ccccc1)C(=O)N1CCC2(CC1)CN(S(C)(=O)=O)c1ccccc12 [Compound 162]	A (A refers to a compound having antagonist activity with Ki<100 nM in a cell based assay)
CCN(CC)CCCS(=O)(=O)N[C@H](CCc1ccccc1)C(=O)N1CCC2(CC1)CN(S(C)(=O)=O)c1ccccc12 [Compound 163]	A (A refers to a compound having antagonist activity with Ki<100 nM in a cell based assay)
CCN(CC)CCCS(=O)(=O)N[C@H](COCc1ccccc1)C(=O)N1CCC2(C=Cc3ccccc32)CC1 [Compound 164]	A (A refers to a compound having antagonist activity with Ki<100 nM in a cell based assay)

These compounds were tested on male C57BL/6J mice (assay: fast-refeed (refeeding) assay, food intake). Conditions: not given.
Type: in vivo
Procedure: Food is removed at 6 pm for an overnight (˜16 hour) fast. Beginning at 10 am on the next morning, mice are administered with either vehicle (e.g., saline+acetic acid, pH=5) or the compound of interest. Mice are then returned to their home cages and pre-weighed food (approximately 90 grams) is immediately returned to the food hoppers in each cage. The weight of the food remaining in the food hoppers is measured at 30 minutes, 1 hour, 2 hours, and 4 hours post compound/vehicle administration. Final body weights are then recorded for the mice.
Animals: For this particular experiment, male C57BL/6J mice (Vendor: Taconic; Age: 7 weeks; Weight Range: 19-25 g) were used. The animals were housed individually during acclimation to facility (3-5 days) and throughout the study. […]
• Mice were weighed and sorted into groups based on Body Weight. • Food was removed at 6 pm for an overnight (˜16 hour) fast. […] After injections mice were returned to their home cages. • Following each injection, pre-weighed food was immediately returned to the food hoppers. • Note: food was weighed the morning injections were administered. • Mouse weighed • Food weighed (approx. 90 g) • Mouse injected • Pre-weighed food returned to hopper • Food Weights were measured at 30 min, 1 hr, 2 hr, and 4 hrs post injection. • Final body weights were recorded and mice were euthanized via CO2 asphyxiation.

Compound	feeding activity of mice in the fast refeed assay
substance P	alters feeding activity
